A short description of this data set: Pharmacokinetics in male Sprague-Dawley rats. It counts as in vivo. The settings on record: plasma, Rat. The protocol: Male Sprague-Dawley (SD) rats (300–350 g) were fasted overnight, and three per group received BMS-869780 either as an intravenous (IV) infusion in PEG400 : ethanol (90 : 10 w/w) at 1 mg/kg over 5 min via the jugular vein or as nanosuspension (d50 ca. 300 nm) by oral gavage at 5 mg/kg in Povidone K-30 : sodium lauryl sulfate : water (2.5 : 0.12 : 97.38 w/w/w/w). For the IV infusion, serial blood samples were obtained before dose and at 0.17, 0.25, 0.5, 0.75, 1, 2, 4, 6, 8, and 24 hours after dose. For the PO nanosuspension, serial blood samples were obtained before dose and at 0.25, 0.5, 0.75, 1, 2, 4, 6, 8, and 24 h after dose. Blood samples, ~0.3 mL, for all studies were collected from the jugular vein into K3EDTA-containing tubes and then centrifuged at 4°C (1500–2000 ×g) to obtain plasma, which was stored at −20°C until analysis by LC/MS/MS. In male beagle dogs, the PK of BMS-869780 was evaluated in a cross-over study design with a one-week washout between treatments. Dogs were fasted overnight, and three animals (9.5 to 10.7 kg) received BMS-869780 by IV infusion at 1 mg/kg over 5 minutes in PEG400 : ethanol (90 : 10 w/w) or as nanosuspension (d50 ca. 300 nm) by oral gavage at 5 mg/kg in Povidone K-30 : sodium lauryl sulfate : water (2.5 : 0.12 : 97.38 w/w/w/w). Serial blood samples (~0.3 mL) were collected from a saphenous vein into K3EDTA-containing tubes before dose and at 0.083, 0.17, 0.25, 0.5, 0.75, 1, 2, 4, 6, 8, and 24 hours after IV dose, and 0.25, 0.5, 0.75, 1, 2, 4, 6, 8, and 24 hours after oral dose, followed by centrifugation at 4°C (1500 to 2000 ×g) to obtain plasma. Samples were stored at −20°C until analysis of BMS-869780 levels by LC-MS/MS. In male cynomolgus monkeys, the PK of BMS-869780 was evaluated in a cross-over study design with a 1-week washout between treatments. Following an overnight fast, three animals (4.5 to 8 kg) received BMS-869780 by IV infusion via a femoral vein at 1 mg/kg over 10 minutes in PEG400 : ethanol (90 : 10), or by oral gavage at 5 mg/kg in Povidone K-30 : sodium lauryl sulfate : water (2.5 : 0.12 : 97.38). Serial blood samples, ~0.3 mL, were collected from a femoral artery into K3EDTA-containing tubes before dose and at 0.083, 0.17, 0.25, 0.5, 0.75, 1, 2, 4, 6, 8, and 24 hours after IV dose, and 0.25, 0.5, 0.75, 1, 2, 4, 6, 8, and 24 hours after oral dose, followed by centrifugation at 4°C (1500 to 2000 ×g) to obtain plasma. Samples were stored at −20°C until analysis of BMS-869780 levels by LC-MS/MS. The PK parameters of BMS-869780 were obtained by noncompartmental analysis of plasma concentration versus time data (WinNonlin software, Version 5.0; Pharsight Corporation, Mountain View, CA). The peak concentration (C max) and time for C max (T max) were recorded directly from experimental observations. The area under the curve from time zero to the last sampling time (AUC^0-T) and the area under the curve from time zero to infinity (AUC^INF) were calculated using a combination of linear and log trapezoidal summations. The total plasma clearance (CLTp), steady-state volume of distribution (Vss), apparent elimination half-life (T 1/2), and mean residence time (MRT) were estimated after IV administration. The absolute oral bioavailability (F) was estimated as the ratio of dose-normalized AUC values following oral and IV doses.
Figure 9 Pharmacokinetics (PK) of BMS-869780 across species for prediction of human PK. Rats, dogs, and cynomolgus monkeys were dosed with BMS-869780 intravenously (IV ▲) at 1 mg/kg or oral nanosuspension (PO ●) at 5 mg/kg. Plasma concentrations of BMS-869780 were determined for up to 24 hours after the dose. (a) Rat. (b) Dog. (c) Cynomolgus monkey.

In general, AUC(0-t) refers to the area under the concentration-time curve up to a stated or last time point. For orientation: MRT means a mean duration of stay, worked out from the concentration-time curve. In general, clearance refers to a measure of how efficiently the substance is removed, as volume per time. One may read the half-life as the time in which the quantity being followed falls by half. As a reminder, the Cmax is the highest concentration seen after dosing. As a reminder, the Tmax is the time at which the peak concentration occurs. The term bioavailability denotes dose-corrected exposure relative to a reference, in per cent. For the molecule `COc1cc(Nc2nc3n(n2)CCCC[C@H]3c2ccc(F)cc2)ccc1-n1cnc(Cl)c1` [BMS-869780], under “IV 1 mg/kg”, the AUC(0-t) came out at 1.48 ± 0.121 µM·h, the MRT stood at 1 ± 0.2 h, the clearance came to 24.3 ± 1.7 mL/min/kg and the half-life was 2 ± 0.3 h. Further, the Vd (IV 1 mg/kg, read-out: Vss) is 1.8 ± 0.5 L/kg. Further, where the note is “PO suspension 5 mg/kg”, the AUC(0-t) was determined as 4 ± 0.964 µM·h, the Cmax worked out at 674 ± 227 nM, the time of peak concentration (Tmax) was 3.3 ± 1.2 h and the bioavailability is 54%.

The record behind these values is paper PMC4109680, “Identification and Preclinical Pharmacology of the γ-Secretase Modulator BMS-869780” (International Journal of Alzheimer's Disease, 2014).
